Measurements from patent US10093623B2, “Cyclic amides as MetAP-2 inhibitors” (MERCK PATENT GmbH, priority 2012, dated 2018).

These molecules were tested against MetAP-2 (Homo sapiens, UniProt P50579) (assay: MetAP-2 activity measurement (coupled enzymatic reactions, Met-Arg-Ser substrate, dianisidine detection at 450 nm)). Details: Inhibition of MetAP-2; read-out: IC50 enzyme.
Type: biochemical
Protocol: MetAP-2 Activity Measurement
The MetAP-2 activity is determined by coupling enzymatic reactions. The tripeptide Met-Arg-Ser (MAS) is employed as substrate. The methionine liberated is firstly converted into Metox and H2O2 by L-aminooxidase (AAO). In the second step, the peroxidase (POD) with the aid of the H2O2 catalyses the oxidation of the leukodye dianisidine to dianisidineox, the increase of which is detected photometrically at 450 nm.
MetAP-2 activity can be recorded continuously as kinetics. The reaction scheme illustrates that one mol of dianisidineox is formed per mol of methionene. The MetAP-2 enzyme activity can therefore be calculated directly as A absorption per time unit. Qualification of the MetAP-2 activity (mol of Met/time unit) is possible with the aid of the dianisidineox extinction coefficient.
The change in extinction per time unit is depicted graphically and a slope calculation is carried out in the visually linear region of the reaction.

Chain of MetAP-2 (P50579 whole entry, species assumed): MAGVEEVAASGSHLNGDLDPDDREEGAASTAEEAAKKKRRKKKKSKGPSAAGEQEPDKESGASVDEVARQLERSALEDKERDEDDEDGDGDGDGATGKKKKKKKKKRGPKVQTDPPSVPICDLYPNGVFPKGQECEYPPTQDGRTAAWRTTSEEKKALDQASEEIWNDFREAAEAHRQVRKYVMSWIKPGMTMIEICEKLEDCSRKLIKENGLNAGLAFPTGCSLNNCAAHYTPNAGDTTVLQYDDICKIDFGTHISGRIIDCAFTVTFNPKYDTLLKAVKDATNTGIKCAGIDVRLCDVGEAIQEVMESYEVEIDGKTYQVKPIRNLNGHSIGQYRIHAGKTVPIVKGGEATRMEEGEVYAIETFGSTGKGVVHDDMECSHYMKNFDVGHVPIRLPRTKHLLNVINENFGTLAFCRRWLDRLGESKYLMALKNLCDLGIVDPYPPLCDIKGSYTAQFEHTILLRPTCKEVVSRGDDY

| SMILES | IC50 |
| --- | --- |
| O=C(NCCCO)c1cccc(N2CC[C@](O)(C(=O)NCc3cc(F)cc(Cl)c3)C2=O)c1 [A94, N-(3-Chloro-5-fluorobenzyl)-(S)-3-hydroxy-1-[3-(3-hydroxy-propylcarbamoyl)phenyl]-2-oxo-pyrrolidine-3-carboxamide] | 0.01 to 1 µM |
| O=C(c1cccc(N2CC[C@](O)(C(=O)NCc3cc(F)cc(Cl)c3)C2=O)c1)N1CCCCC1 [A95, N-(3-Chloro-5-fluorobenzyl)-(S)-3-hydroxy-2-oxo-1-[3-(piperidin-1-carbonyl)phenyl]pyrrolidine-3-carboxamide] | 0.01 to 1 µM |
| O=C1NCCc2cc(N3CC[C@](O)(C(=O)NCc4cc(F)cc(Cl)c4)C3=O)ccc21 [A96, N-(3-Chloro-5-fluorobenzyl)-(S)-3-hydroxy-2-oxo-1-(1-oxo-1,2,3,4-tetrahydroisoquinolin-6-yl)pyrrolidine-3-carboxamide] | 0.01 to 1 µM |
| N#Cc1ccc(N2CC[C@](O)(C(=O)NCc3cc(F)cc(Cl)c3)C2=O)cn1 [A97, N-(3-Chloro-5-fluorobenzyl)-(S)-1-(6-cyanopyridin-3-yl)-3-hydroxy-2-oxopyrrolidine-3-carboxamide] | 0.01 to 1 µM |
| N#Cc1cncc(N2CC[C@@](O)(C(=O)NCc3cc(F)cc(Cl)c3)C2=O)c1 [A98, N-(3-Chloro-5-fluorobenzyl)-(R)-1-(5-cyanopyridin-3-yl)-3-hydroxy-2-oxopyrrolidine-3-carboxamide] | > 10 µM |
| O=C(NCc1cc(F)cc(Cl)c1)[C@@]1(O)CCN(c2ccc(C(F)(F)F)nc2)C1=O [A99, N-(3-Chloro-5-fluorobenzyl)-(S)-3-hydroxy-2-oxo-1-(6-trifluoromethylpyridin-3-yl)-pyrrolidine-3-carboxamide] | 0.01 to 1 µM |
| COC(=O)c1cc(N2CCC(O)(C(=O)NCc3cc(F)cc(Cl)c3)C2=O)cnc1C (centres unmarked) [A100, Methyl 5-[3-(3-chloro-5-fluorobenzylcarbamoyl)-3-hydroxy-2-oxopyrrolidin-1-yl]-2-methylnicotinate] | 0.01 to 1 µM |
| CC1(C)CN(c2ccccc2)C(=O)[C@@]1(O)C(=O)NCc1cc(F)cc(Cl)c1 [A101, N-(3-Chloro-5-fluorobenzyl)-(S)-3-hydroxy-4,4-dimethyl-2-oxo-1-phenylpyrrolidine-3-carboxamide] | > 10 µM |
| CN(CCO)C(=O)c1cccc(N2CC[C@@](O)(C(=O)NCc3cc(F)cc(Cl)c3)C2=O)c1 [A102, N-(3-Chloro-5-fluorobenzyl)-(R)-3-hydroxy-1-{3-[(2-hydroxy-ethyl)methylcarbamoyl]phenyl}-2-oxopyrrolidine-3-carboxamide] | 1 to 10 µM |
| O=C(NCCCO)c1cccc(N2CC[C@@](O)(C(=O)NCc3cc(F)cc(Cl)c3)C2=O)c1 [A103, N-(3-Chloro-5-fluorobenzyl)-(R)-3-hydroxy-1-[3-(3-hydroxy-propylcarbamoyl)phenyl]-2-oxo-pyrrolidine-3-carboxamide] | 1 to 10 µM |
| O=C(c1cccc(N2CC[C@@](O)(C(=O)NCc3cc(F)cc(Cl)c3)C2=O)c1)N1CCCCC1 [A104, N-(3-Chloro-5-fluorobenzyl)-(R)-3-hydroxy-2-oxo-1-[3-(piperidin-1-carbonyl)phenyl]pyrrolidine-3-carboxamide] | > 10 µM |
| O=C1NCCc2cc(N3CC[C@@](O)(C(=O)NCc4cc(F)cc(Cl)c4)C3=O)ccc21 [A105, N-(3-Chloro-5-fluorobenzyl)-(R)-3-hydroxy-2-oxo-1-(1-oxo-1,2,3,4-tetrahydroisoquinolin-6-yl)pyrrolidine-3-carboxamide] | > 10 µM |
| N#Cc1ccc(N2CC[C@@](O)(C(=O)NCc3cc(F)cc(Cl)c3)C2=O)cn1 [A106, N-(3-Chloro-5-fluorobenzyl)-(R)-1-(6-cyanopyridin-3-yl)-3-hydroxy-2-oxopyrrolidine-3-carboxamide] | > 10 µM |
| N#Cc1cncc(N2CC[C@](O)(C(=O)NCc3cc(F)cc(Cl)c3)C2=O)c1 [A107, N-(3-Chloro-5-fluorobenzyl)-(S)-1-(5-cyanopyridin-3-yl)-3-hydroxy-2-oxopyrrolidine-3-carboxamide] | 1 to 10 µM |
| O=C(NCc1cc(F)cc(Cl)c1)[C@]1(O)CCN(c2ccc(C(F)(F)F)nc2)C1=O [A108, N-(3-Chloro-5-fluorobenzyl)-(R)-3-hydroxy-2-oxo-1-(6-trifluoromethylpyridin-3-yl)-pyrrolidine-3-carboxamide] | > 10 µM |
| CC1(C)CN(c2ccccc2)C(=O)[C@]1(O)C(=O)NCc1cc(F)cc(Cl)c1 [A109, N-(3-Chloro-5-fluorobenzyl)-(R)-3-hydroxy-4,4-dimethyl-2-oxo-1-phenylpyrrolidine-3-carboxamide] | > 10 µM |
| C=C(Cc1ccccc1)C(=O)[C@@]1(O)CCN(c2ccccc2)C1=O [A110, (S)-3-(2-Benzylacryloyl)-3-hydroxy-1-phenylpyrrolidin-2-one] | > 10 µM |
| C=C(Cc1ccccc1)C(=O)[C@]1(O)CCN(c2ccccc2)C1=O [A111, (R)-3-(2-Benzylacryloyl)-3-hydroxy-1-phenylpyrrolidin-2-one] | > 10 µM |

| SMILES | IC50 |
| --- | --- |
| O=C(NCc1cc(F)cc(Cl)c1)C1(O)CCN(c2ccc3c(c2)c(C(F)(F)F)cn3CO)C1=O (centres unmarked) [A112, N-(3-Chloro-5-fluorobenzyl)-3-hydroxy-1-(1-hydroxymethyl-3-trifluoromethyl-1H-indol-5-yl)-2-oxopyrrolidine-3-carboxamide] | 0.01 to 1 µM |
| O=C(NCc1cc(F)cc(Cl)c1)C1(O)C(=O)N(c2ccccc2)CC12COC2 (centres unmarked) [A113, N-(3-Chloro-5-fluorobenzyl)-8-hydroxy-7-oxo-6-phenyl-2-oxa-6-azaspiro[3.4]octane-8-carboxamide] | > 10 µM |
| O=C1NCCc2ccc(N3CCC(O)(C(=O)NCc4cc(F)cc(Cl)c4)C3=O)cc21 (centres unmarked) [A115, N-(3-Chloro-5-fluorobenzyl)-3-hydroxy-2-oxo-1-(1-oxo-1,2,3,4-tetrahydroisoquinolin-7-yl)-pyrrolidine-3-carboxamide] | 0.01 to 1 µM |
| CNc1ccc(N2CCC(O)(C(=O)NCc3cc(F)cc(Cl)c3)C2=O)cn1 (centres unmarked) [A116, N-(3-Chloro-5-fluorobenzyl)-3-hydroxy-1-(6-methylamino-pyridin-3-yl)-2-oxopyrrolidine-3-carboxamide] | 0.01 to 1 µM |
| Cc1cncc(N2CCC(O)(C(=O)NCc3cc(F)cc(Cl)c3)C2=O)c1 (centres unmarked) [A117, N-(3-Chloro-5-fluorobenzyl)-3-hydroxy-1-(5-methylpyridin-3-yl)-2-oxopyrrolidine-3-carboxamide] | 0.01 to 1 µM |
| O=C(NCc1cc(F)cc(Cl)c1)C1(O)CCN(c2cnc3c(c2)OCCN3)C1=O (centres unmarked) [A118, N-(3-Chloro-5-fluorobenzyl)-1-(3,4-Dihydro-2H-pyrido[3,2-b]-1,4-oxazin-7-yl)-3-hydroxy-2-oxopyrrolidine-3-carboxamide] | 0.01 to 1 µM |
| CC1CC(O)(C(=O)NCc2cc(F)cc(Cl)c2)C(=O)N1c1ccccc1 (centres unmarked) [A119, N-(3-chloro-5-fluorobenzyl)-3-hydroxy-5-methyl-2-oxo-1-phenylpyrrolidine-3-carboxamide] | 1 to 10 µM |
| OC1(CNCc2cc(F)cc(Cl)c2)CCN(c2ccccc2)C1 (centres unmarked) [A120, 3-[(3-chloro-5-fluorobenzylamino)methyl]-1-phenylpyrrolidin-3-ol] | > 10 µM |
| O=C(NCc1cc(F)cc(Cl)c1)C1(O)CCN(Cc2ccccc2)C1 (centres unmarked) [A121, N-(3-chloro-5-fluorobenzyl)-1-benzyl-3-hydroxypyrrolidine-3-carboxamide] | 1 to 10 µM |
| CC(=O)N[C@H]1CC[C@H](N2CCC(O)(C(=O)NCc3cc(F)cc(Cl)c3)C2=O)CC1 (some centres unmarked) [A122, N-(3-Chloro-5-fluorobenzyl)-1-(4-acetylaminocyclohexyl)-3-hydroxy-2-oxopyrrolidine-3-carboxamide] | 1 to 10 µM |
| CS(=O)(=O)N[C@H]1CC[C@H](N2CCC(O)(C(=O)NCc3cc(F)cc(Cl)c3)C2=O)CC1 (some centres unmarked) [A123, N-(3-Chloro-5-fluorobenzyl)-3-hydroxy-1-(4-methane-sulfonylaminocyclohexyl)-2-oxo-pyrrolidine-3-carboxamide] | 1 to 10 µM |
| CCS(=O)(=O)N[C@H]1CC[C@H](N2CCC(O)(C(=O)NCc3cc(F)cc(Cl)c3)C2=O)CC1 (some centres unmarked) [A124, N-(3-Chloro-5-fluorobenzyl)-1-(4-ethanesulfonylamino-cyclohexyl)-3-hydroxy-2-oxo-pyrrolidine-3-carboxamide] | 1 to 10 µM |
| O=C(NCc1cc(F)cc(Cl)c1)C1(O)CCN([C@H]2CCC[C@H](O)[C@@H]2O)C1=O (stereo partly drawn) [A125, N-(3-Chloro-5-fluorobenzyl)-1-((1S,2R,3S)-2,3-dihydroxy-cyclohexyl)-3-hydroxy-2-oxo-pyrrolidine-3-carboxamide] | 1 to 10 µM |
| CC(=O)NC1CCCC(N2CCC(O)(C(=O)NCc3cc(F)cc(Cl)c3)C2=O)C1 (centres unmarked) [A126, N-(3-Chloro-5-fluorobenzyl)-1-(3-acetylaminocyclohexyl)-3-hydroxy-2-oxopyrrolidine-3-carboxamide] | 1 to 10 µM |
| CCN[C@H]1CC[C@H](N2CCC(O)(C(=O)NCc3cc(F)cc(Cl)c3)C2=O)CC1 (some centres unmarked) [A127, N-(3-Chloro-5-fluorobenzyl)-1-(4-ethylaminocyclohexyl)-3-hydroxy-2-oxopyrrolidine-3-carboxamide] | 1 to 10 µM |
| CCS(=O)(=O)NC1CCCC(N2CCC(O)(C(=O)NCc3cc(F)cc(Cl)c3)C2=O)C1 (centres unmarked) [A128, N-(3-Chloro-5-fluorobenzyl)-1-(3-ethanesulfonylamino-cyclohexyl)-3-hydroxy-2-oxo-pyrrolidine-3-carboxamide] | 1 to 10 µM |
| CC1(C)O[C@H]2[C@H](CCC[C@@H]2N2CCC(O)(C(=O)NCc3cc(F)cc(Cl)c3)C2=O)O1 (stereo partly drawn) [A129, N-(3-Chloro-5-fluorobenzyl)-1-((3aR,4S,7aS)-2,2-dimethyl-hexahydrobenzo-1,3-dioxol-4-yl)-3-hydroxy-2-oxopyrrolidine-3-carboxamide] | 1 to 10 µM |
